Patent US11279702B2, “AMPK activators” (Kallyope, Inc., priority 2020, dated 2022)

Legend:
[1] = Concentrations in colon post oral dosing; format: in vivo, mouse; conditions: PO 30 mg/kg
Method: A time course for colonic exposure to Compound A1 was determined in mouse following a single bolus oral (PO) gavage of 30 mg/kg of A1. Whole colon from cecum to rectum was collected at 2, 4, 6, and 8 hours post-dose and snap frozen. Tissue was homogenized and the concentration of A1 was measured.

BCRP = BCRP (Homo sapiens (Human), UniProt Q9UNQ0); assay: in vitro; format: in vitro ADME; conditions: for efflux transporter substrate assessment: Caco-2; for Efflux Ratio / Mean Papp (10^−6 cm/s) B to A / Mean Recovery (%) A to B / Mean Recovery (%) B to A / Papp B→A at 2 h, 2 μM / recovery at 2 h, 2 μM: human; for Efflux Ratio / Mean Papp (10^−6 cm/s) B to A / Mean Recovery (%) A to B / Mean Recovery (%) B to A: Caco-2, 2 h, 2 μM, pH 7.4; for Papp B→A at 2 h, 2 μM: Caco-2, pH 7.4, Mean Papp (10^−6 cm/s) B to A
Method: Caco-2 cells purchased from ATCC were seeded onto […] (PET) in 96-well BD Insert plates at 1×10^5 cells/cm^2, and refreshed medium every 4-5 days until to the 21st to 28th day for confluent cell monolayer formation. The transport buffer in the study was HBSS with 10 mM HEPES at pH 7.40±0.05. Compounds were tested at 2 μM in the presence or absence of 30 μM novobiocin bi-directionally in duplicate. E3S was tested at 5 μM in the presence or absence of 30 μM novobiocin bi-directionally in duplicate, while nadolol and metoprolol were tested at 2 μM in the absence of novobiocin in A to B direction in duplicate. Final DMSO concentration was adjusted to less than 1%. The plate was incubated for 2 hours in CO2 incubator at 37+1° C., with 5% CO2 at saturated humidity without shaking. All samples were mixed with acetonitrile containing internal standard and were centrifuged at 4000 rpm for 10 min. Subsequently, 100 μL supernatant solution was diluted with 100 μL distilled water for LC/MS/MS analysis. Concentrations of test and control compounds in starting solution, donor solution, and receiver solution were quantified by LC/MS/MS, using peak area ratio of analyte/internal standard.

[2] = system: Acetyl CoA Carboxylase (ACC) Phosphorylation in Mouse Muscle; assay: Level of ACC phosphorylation in mouse muscle; format: in vivo, C57BL/6J mice
Method: Systemic AMPK target engagement in vivo can be assessed by measuring the site-specific phosphorylation of a direct AMPK substrate, acetyl-coenzyme A carboxylase (ACC), in a well perfused tissue such as muscle.
Compounds were formulated in vehicle (0.25% methyl cellulose, 5% Tween 80, 0.02% sodium dodecyl sulfate (SDS) in Hanks' Buffered Salt Solution with Ca^2+ and Mg^2+). Male C57BL/6J mice were administered vehicle or compound once daily for 5 days. On the final day of dosing (day 1 for acute assessment, day 5 for sub-chronic assessment), mice were euthanized by cervical dislocation five hours post dose and samples of skeletal muscle (gastrocnemius) were removed and snap frozen in liquid nitrogen.
Frozen muscle tissues were homogenized. Homogenates were analyzed for protein concentration and equal amounts of protein were assayed for total and phosphorylated ACC (p-ACC) levels using Meso Scale Discovery's Multi-array assay kit. The ratio of p-ACC/total ACC was determined for each sample.

[3] = Caco-2, pH 7.4, Mean Recovery (%) A to B
[4] = Caco-2, pH 7.4, Mean Recovery (%) B to A

Chain of BCRP (Q9UNQ0 whole entry): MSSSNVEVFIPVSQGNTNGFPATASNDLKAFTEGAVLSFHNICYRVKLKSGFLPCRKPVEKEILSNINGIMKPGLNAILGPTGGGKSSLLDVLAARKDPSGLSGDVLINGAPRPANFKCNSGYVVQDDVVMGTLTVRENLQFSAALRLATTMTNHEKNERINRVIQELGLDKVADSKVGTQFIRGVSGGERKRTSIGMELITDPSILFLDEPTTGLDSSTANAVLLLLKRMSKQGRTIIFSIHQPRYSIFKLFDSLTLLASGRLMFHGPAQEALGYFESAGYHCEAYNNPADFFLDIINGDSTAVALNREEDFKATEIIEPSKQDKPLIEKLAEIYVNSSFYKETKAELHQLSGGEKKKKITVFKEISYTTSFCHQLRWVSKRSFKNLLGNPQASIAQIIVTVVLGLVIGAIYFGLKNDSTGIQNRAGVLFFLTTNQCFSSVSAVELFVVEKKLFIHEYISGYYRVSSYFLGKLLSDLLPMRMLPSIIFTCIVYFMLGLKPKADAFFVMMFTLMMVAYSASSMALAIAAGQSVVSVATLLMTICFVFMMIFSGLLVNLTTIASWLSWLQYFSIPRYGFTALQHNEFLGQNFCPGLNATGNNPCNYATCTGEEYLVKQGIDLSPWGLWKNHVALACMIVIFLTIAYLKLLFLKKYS

For `O=C(O)CSc1nc2cc(-c3ccc(-c4ccccc4O)cc3)c(Cl)cc2[nH]1` [Compound A1], the colonic exposure profile ([1]; 2 to 8 hours post-dose) was 122 to 255 µM, the concentration in colon ([1]; 2 h post dosing) was 254 µM and the concentration in colon ([1]; 4 h post dosing) was 122 µM. For the same molecule, the concentration in colon ([1]; 6 h post dosing) was 128 µM, the concentration in colon ([1]; 8 h post dosing) was 205 µM and the “efflux transporter substrate assessment” value (BCRP) was “likely substrates of intestinal efflux transporters”. The “Efflux Ratio” value (BCRP) was 55.54, the “Mean Papp (10^−6 cm/s) B to A” value (BCRP) was 9.16 10^−6 cm/s and the “Mean Recovery (%) A to B” value (BCRP) was 61.16%. For the same molecule, the “Mean Recovery (%) B to A” value (BCRP) was 78.94%, the Papp B→A at 2 h, 2 μM (BCRP) was 17.1 ×10⁻⁶ cm/s and the recovery at 2 h, 2 μM (BCRP; [3]) was < 65.6%. For the same molecule, the recovery at 2 h, 2 μM (BCRP; [4]) was 77.4%.

For `O=C(O)CSc1nc2nc(-c3ccc(-c4ccccc4O)cc3)c(Cl)cc2[nH]1` [Compound 1, 2-((6-chloro-5-(2′-hydroxy-[1,1′-biphenyl]-4-yl)-1H-imidazo[4,5-b]pyridin-2-yl)thio)acetic Acid], the “% p-ACC/ACC ratio change vs. Vehicle, Sub-chronic (5 days)” value ([2]; 30 mg/kg once daily for 5 days, five hours post dose, gastrocnemius) was 29.6%, the “% p-ACC/ACC ratio change vs. Vehicle, Acute (5 hr)” value ([2]; 30 mg/kg, day 1, five hours post dose, gastrocnemius) was 6.6% and the “ratio of pACC/total ACC compared with vehicle control mice” value ([2]; 30 mg/kg, one-way ANOVA vs vehicle (Dunnett's post-test)) was “not significantly changed”. For the same molecule, the “efflux transporter substrate assessment” value (BCRP) was “likely substrates of intestinal efflux transporters”, the “Efflux Ratio” value (BCRP) was 44.89 and the “Mean Papp (10^−6 cm/s) B to A” value (BCRP) was 6.98 10^−6 cm/s. For the same molecule, the “Mean Recovery (%) A to B” value (BCRP) was 69.40%, the “Mean Recovery (%) B to A” value (BCRP) was 82.75% and the Papp B→A at 2 h, 2 μM (BCRP) was 12.7 ×10⁻⁶ cm/s. For the same molecule, the recovery at 2 h, 2 μM (BCRP; [3]) was < 68.8% and the recovery at 2 h, 2 μM (BCRP; [4]) was 79.5%.
